Laboratory results published in patent US20230165818A1, “COMPOSITION FOR REDUCING HEPATIC TRIGLYCERIDES AND/OR IMPROVING GLUCOSE METABOLISM” (Compagnie Gervais Danone, priority 2020, published 2023).

Assays:
[1] = tested on: FAO rat hepatocytes; experiment: Hepatic glucose production (HGP) in FAO cells; assay type: cell-based
Method: FAO rat hepatocytes were maintained in RPMI 1640 medium (Invitrogen) supplemented with 10% FBS. Cells were maintained in this medium 48 h before treatment. They were then serum-deprived overnight for 16 h with or without insulin (1 nM) and with HICA, HIVA or HMVA product at 10 nM, 100 nM, 1 μM, 10 μM, 100 μM and 1 mM. The cells were washed three times with PBS and incubated with phenol red- and glucose-free DMEM medium supplemented with 20 mM sodium L-lactate and 2 mM sodium pyruvate for 5 h with or without insulin and the indicated study treatment. Cell supernatant was collected, and glucose concentration was measured with the Amplex-Red Glucose assay kit accordingly to the manufacturer's instructions (Invitrogen). Cells were lysed with 50 mM NaOH, and protein concentration was determined using a BCA protein assay kit to normalize glucose production.

[2] = tested on: L6 myocytes; experiment: Glucose uptake in L6 muscle cells; assay type: cell-based; conditions: 0.01, 0.1 or 1 μM, basal and insulin conditions (FIGS. 2G and H)
Method: FIG. 2. (A) HGP of FAO cells treated with a 1 mM mixture of HICA: HIVA: HMVA at molar ratio 1:1:0.5 in basal condition. (B) HGP of FAO cells treated with a 1 mM mixture of HICA: HIVA: HMVA at molar ratio 1:1:0.5 in insulin condition. (C) HGP of FAO cells treated with 0.5 and 1 mM of HICA, leucine or combination of both in basal condition. (D) HGP of FAO cells treated with 0.5 and 1 mM of HICA, leucine or combination of both in insulin condition. (E) Glucose uptake of L6 muscle cells treated with a 0.1 or 1 μM mixture of HICA: HIVA: HMVA at molar ratio 1:1:0.5 in basal condition. (F) Glucose uptake of L6 cells treated with a 0.1 or 1 μM mixture of HICA: HIVA: HMVA at molar ratio 1:1:0.5 in insulin condition. (G) Glucose uptake of L6 cells treated with 0.01, 0.1 or 1 μM of HICA in basal condition. (H) Glucose uptake of L6 cells treated with 0.01, 0.1 or 1 μM of HICA in insulin condition.*p<0.05 versus control, **p<0.01 versus control, ***p<0.001 vs control, kp<0.05 versus Leu 0.5 mM, ^$ p<0.05 versus Leu 1 mM, ^$$ p<0.01 versus Leu 1 mM, ^$$$ p<0.001 versus Leu 1 mM. For panel C, D, G, H expressed in fold, basal and basal insulin are considered as a reference and represented by a dash line.
The Inventors elected to test the hypothesis that BCHA could exert direct effects in relevant cells. […]

For `CC(C)CC(O)C(=O)O` (stereo not drawn) [HICA, alpha-hydroxyisocaproic acid], the “effect on HGP in combination with leucine” value ([1]; 0.5 and 1 mM HICA combined with leucine (FIGS. 2C and D)) was “competed the effect of its BCAA leucine precursor”, the “basal HGP” value ([1]; 0.5 and 1 mM, basal condition (FIG. 2C)) was “dose-dependently inhibited” and the “insulin-suppressed HGP” value ([1]; 0.5 and 1 mM, insulin condition (FIG. 2D)) was “dose-dependently inhibited”. For the same compound, the “glucose uptake, individual BCHA” value [2] was “these effects appeared to be mostly explained by HICA”.
